One experiment has as its target CAIX (Homo sapiens, UniProt Q16790). Nature of the experiment: CAIX Competition Binding Assay (competition fluorescence polarization). The protocol:
CAIX Competition Binding Assay. Affinity of the peptides of the invention for human CAIX (Ki) is determined using a competition fluorescence polarization assay analogous to that described in Dubois et al. (2011) Radiotherapy and Oncology 99(3), 424-43 using A-(CAECWIDGWVPC)-A-Sar6-K(Fl), (SEQ ID NO: 11), as the fluorescent ligand.
Compounds described as “B” have a K, equal to or greater than 0.5 μM and less than 1 μM. Compounds described as “C” have a K, equal to or greater than 1 μM and less than 10 μM. Compounds described as “D” have a K, equal to or greater than 10 μM.

For the next experiment, the target named is MT1-MMP hemopexin domain (Homo sapiens, UniProt P50281). Nature of the experiment: MT1-MMP Direct Binding Fluorescence Polarization (Anisotropy) Assay. Conditions: MT1-MMP direct binding FP, n=2. The procedure: Direct Binding Fluorescence Polarization or Anisotropy Assays are performed by titrating a constant concentration of fluorescent tracer (here, the fluoresceinated bicyclic peptide to be studied) with its binding partner (here, the MT1-MMP hemopexin domain). As the concentration of binding partner increases during the titration, the polarization signal changes in proportion to the fraction of bound and unbound material. This allows determination of […] (Kd) quantitatively. Assay data can be fit using standard ligand binding equations.
Typically, concentrations of the tracer are ideally well below the Kd of the tracer:titrant pair, and concentrations chosen are usually at ˜1 nM or less. The titrant (binding partner) concentration is varied from 0.1 nM up to typically 5 μM. The range is chosen such that the maximum change in fluorescent polarization can be observed. Buffers employed are phosphate buffered saline in the presence of 0.01% Tween. Experiments were run in black 384 well low-bind/low volume plates (Corning 3820), and the fluorescent polarization signal was measured using a BMG Pherastar FS plate reader. Fluorescent tracers referred to in the text are bicyclic peptides that have been fluoresceinated using 5,6-carboxyfluorescein. Fluoresceination may be performed on the N-terminal amino group of the peptide, which is separated from the bicycle core sequence by a sarcosine spacer (usually Sar5). This can be done during Fmoc solid phase synthesis or post-synthetically (after cyclization with the molecular scaffold reagent and purification) if the N-terminal amino group is unique to the peptide. Fluoresceination can also be performed on the C-terminus, usually on a Lysine introduced as the first C-terminal residue, which is then separated from the bicycle core sequence by a sarcosine spacer (usually Sar6). Thus, N-terminal tracers can have a molecular format described as Fluo-Gly-Sar5-A(BicycleCoreSequence), and (BicycleCoreSequence)-A-Sar6-K(Fluo) for a C-terminally fluoresceinated construct.

[1] abbreviates: human CAIX, competition FP, n = 2, read-out: Ki.

Results on 10 compounds are retold here after patent US10919937B2, “Bicyclic peptide ligands and uses thereof” (BicycleTx Limited, priority 2018, dated 2021).

Where two headings read alike, the source gives them in different places. *1 amine or outer side, *2 acyl side, *3 side chain or, on linkers, in order; H or OH if unused. Where a SMILES comes first, the peptide text is derived from it. Bridges are numbered along the chain shown (N, C = ends). [ ]: non-standard residue; d: D form. X11 = O=C(C[*:1])N1CCN(c2ccc(-c3nc(-c4ccc(N5CCN(C(=O)C[*:2])CC5)cc4)nc(-c4ccc(N5CCN(C(=O)C[*:3])CC5)cc4)n3)cc2)CC1; X14 = CC(C)(C)[C@H](N[*:3])C(=O)C[C@@H](CSCc1ccc(-c2nc(-c3ccc(C[*:1])cc3)nc(-c3ccc(C[*:2])cc3)n2)cc1)C(N)=O; X10 = O=C(C[*:1])N1CCC(N2CCN(c3nc(N4CCN(C5CCN(C(=O)C[*:2])CC5)CC4)nc(N4CCN(C5CCN([*:3])CC5)CC4)n3)CC2)CC1; X12 = CC(C)(C)[C@H](N[*:3])C(=O)C[C@@H](CSCc1ccc(CN(Cc2ccc(C[*:1])cc2)Cc2ccc(C[*:2])cc2)cc1)C(N)=O; X6 = O=C(C[*:1])N1Cc2cccc(c2)CN(C(=O)C[*:2])Cc2cccc(c2)CN(C(=O)C[*:3])Cc2cccc(c2)C1; X3 = CC(C)(C)[C@H](N[*:1])C(=O)C[C@@H](CSCc1ccc(C(=O)[*:2])cc1)C(N)=O; X1 = c1cc(-c2nc(-c3ccc(C[*:2])cc3)nc(-c3ccc(C[*:3])cc3)n2)ccc1C[*:1]; X4 = O=C(c1ccc(C[*:1])cc1)N1CN(C(=O)c2ccc(C[*:2])cc2)CN([*:3])C1; X9 = CC(C)(C)[C@H](N[*:1])C(=O)C[C@@H](CSCC(=O)[*:2])C(N)=O; 1Nal = N[C@@H](Cc1cccc2ccccc12)C(=O)O; TBMB = c1c(C[*:1])cc(C[*:3])cc1C[*:2]; Tle = CC(C)(C)[C@H](N)C(=O)O Where only a bound is given, the exact number is not on record here.

Regarding `CC(C)[C@@H]1NC(=O)[C@H](Cc2c[nH]c3ccccc23)NC(=O)[C@@H]2CSCC(=O)N3Cc4cccc(c4)CN(Cc4cccc(c4)CN(Cc4cccc(c4)C3)C(=O)CSC[C@H](NC(=O)[C@H](C)NC(=O)CN(C)C(=O)CN(C)C(=O)CN(C)C(=O)CN(C)C(=O)CN(C)C(=O)CN(C)C(=O)CN(C)C(=O)CN(C)C(=O)CN(C)C(=O)CN(C)C(=O)CCN)C(=O)N[C@@H]([C@@H](C)O)C(=O)N[C@@H](CCC(=O)O)C(=O)N2)C(=O)CSC[C@@H](C(N)=O)NC(=O)[C@@H]2CCCN2C(=O)[C@H](C(C)C)NC(=O)[C@H](Cc2c[nH]c3ccccc23)NC(=O)CNC(=O)[C@H](CC(=O)O)NC1=O` [I-23], the Ki on CAIX (setting [1]) is greater than 10000 nM. On to `C[C@H](N)C(=O)N[C@H]1CSCC(=O)N2Cc3cccc(c3)CN3Cc4cccc(c4)CN(Cc4cccc(c4)C2)C(=O)CSC[C@H](NC(=O)[C@@H](C)NC(=O)[C@H](Cc2cccc4ccccc24)NC(=O)[C@H](CCC(=O)O)NC(=O)[C@H](CC(N)=O)NC(=O)[C@@H](C)NC1=O)C(=O)N[C@@H](CCC(=O)O)C(=O)N[C@@H](CC(=O)O)C(=O)N[C@@H](Cc1ccccc1)C(=O)N[C@@H](Cc1ccc(O)cc1)C(=O)N[C@@H](CC(=O)O)C(=O)N[C@@H](C(C)(C)C)C(=O)N[C@H](C(N)=O)CSCC3=O` [I-44] (H-AC[dA]NE[1Nal][dA]CEDFYD[Tle]C-NH2; linker 2-8-15 via X6), for which, on MT1-MMP hemopexin domain, the inhibition constant (Ki) was no less than 10000 nM. Take `C[C@H](N)C(=O)N[C@H]1CSCc2ccc(cc2)-c2nc3nc(n2)-c2ccc(cc2)CSC[C@H](NC(=O)[C@@H](C)NC(=O)[C@H](Cc2cccc4ccccc24)NC(=O)[C@H](CCC(=O)O)NC(=O)[C@H](CC(N)=O)NC(=O)[C@@H](C)NC1=O)C(=O)N[C@@H](CCC(=O)O)C(=O)N[C@@H](CC(=O)O)C(=O)N[C@@H](Cc1ccccc1)C(=O)N[C@@H](Cc1ccc(O)cc1)C(=O)N[C@@H](CC(=O)O)C(=O)N[C@@H](C(C)(C)C)C(=O)C[C@H](C(N)=O)CSCc1ccc-3cc1` [I-90] (H-AC[dA]NE[1Nal][dA]CEDFYD; linker 2-8-C via X14): the Ki on MT1-MMP hemopexin domain is less than 500 nM. Still for that read-out and setting: the result for `C[C@H](N)C(=O)N[C@H]1CSCC(=O)N2CCC(CC2)N2CCN(CC2)c2nc3nc(n2)N2CCN(CC2)C2CCN(CC2)C(=O)CSC[C@H](NC(=O)[C@@H](C)NC(=O)[C@H](Cc2cccc4ccccc24)NC(=O)[C@H](CCC(=O)O)NC(=O)[C@H](CC(N)=O)NC(=O)[C@@H](C)NC1=O)C(=O)N[C@@H](CCC(=O)O)C(=O)N[C@@H](CC(=O)O)C(=O)N[C@@H](Cc1ccccc1)C(=O)N[C@@H](Cc1ccc(O)cc1)C(=O)N[C@@H](CC(=O)O)C(=O)N[C@@H](C(C)(C)C)C(=O)C[C@H](C(N)=O)CSCC(=O)N1CCC(CC1)N1CCN3CC1` [I-91] (H-AC[dA]NE[1Nal][dA]CEDFYD[X9]; linker 2-8-C via X10) reads less than 500 nM. Regarding `C[C@H](N)C(=O)N[C@H]1CSCc2ccc(cc2)C(=O)N2CN3CN(C2)C(=O)c2ccc(cc2)CSC[C@H](NC(=O)[C@@H](C)NC(=O)[C@H](Cc2cccc4ccccc24)NC(=O)[C@H](CCC(=O)O)NC(=O)[C@H](CC(N)=O)NC(=O)[C@@H](C)NC1=O)C(=O)N[C@@H](CCC(=O)O)C(=O)N[C@@H](CC(=O)O)C(=O)N[C@@H](Cc1ccccc1)C(=O)N[C@@H](Cc1ccc(O)cc1)C(=O)N[C@@H](CC(=O)O)C(=O)N[C@@H](C(C)(C)C)C(=O)C[C@H](C(N)=O)CSCc1ccc(cc1)C3=O` [I-93] (H-AC[dA]NE[1Nal][dA]CEDFYD[X3]; linker 2-8-C via X4), the inhibition constant (Ki) at MT1-MMP hemopexin domain is less than 500 nM. At MT1-MMP hemopexin domain, `C[C@H](N)C(=O)N[C@H]1CSCC(=O)N2CCN(CC2)c2ccc(cc2)-c2nc3nc(n2)-c2ccc(cc2)N2CCN(CC2)C(=O)CSC[C@H](NC(=O)[C@@H](C)NC(=O)[C@H](Cc2cccc4ccccc24)NC(=O)[C@H](CCC(=O)O)NC(=O)[C@H](CC(N)=O)NC(=O)[C@@H](C)NC1=O)C(=O)N[C@@H](CCC(=O)O)C(=O)N[C@@H](CC(=O)O)C(=O)N[C@@H](Cc1ccccc1)C(=O)N[C@@H](Cc1ccc(O)cc1)C(=O)N[C@@H](CC(=O)O)C(=O)N[C@@H](C(C)(C)C)C(=O)N[C@H](C(N)=O)CSCC(=O)N1CCN(CC1)c1ccc-3cc1` [I-94] (H-AC[dA]NE[1Nal][dA]CEDFYD[Tle]C-NH2; linker 2-8-15 via X11) gave an inhibition constant (Ki) of less than 500 nM. Consider `C[C@H](N)C(=O)N[C@H]1CSCc2ccc(cc2)CN2Cc3ccc(cc3)CSC[C@@H](C(N)=O)CC(=O)[C@H](C(C)(C)C)NC(=O)[C@H](CC(=O)O)NC(=O)[C@H](Cc3ccc(O)cc3)NC(=O)[C@H](Cc3ccccc3)NC(=O)[C@H](CC(=O)O)NC(=O)[C@H](CCC(=O)O)NC(=O)[C@H](CSCc3ccc(cc3)C2)NC(=O)[C@@H](C)NC(=O)[C@H](Cc2cccc3ccccc23)NC(=O)[C@H](CCC(=O)O)NC(=O)[C@H](CC(N)=O)NC(=O)[C@@H](C)NC1=O` [I-96] (H-AC[dA]NE[1Nal][dA]CEDFYD; linker 2-8-C via X12), for which the inhibition constant Ki on MT1-MMP hemopexin domain is less than 500 nM. Take `CC(=O)N[C@H]1CSCc2ccc(cc2)-c2nc3nc(n2)-c2ccc(cc2)CSC[C@H](NC(=O)[C@H](CCC(=O)O)NC(=O)[C@H]([C@@H](C)O)NC1=O)C(=O)N[C@@H](Cc1c[nH]c2ccccc12)C(=O)N[C@@H](C(C)C)C(=O)N[C@@H](CC(=O)O)C(=O)NCC(=O)N[C@@H](Cc1c[nH]c2ccccc12)C(=O)N[C@@H](C(C)C)C(=O)N1CCC[C@H]1C(=O)N[C@H](C(N)=O)CSCc1ccc-3cc1` [I-98] (Ac-CTECWVDGWVPC-NH2; linker 1-4-12 via X1): on CAIX (setting [1]), the inhibition constant (Ki) is less than 500 nM. Consider `CC(=O)N[C@H]1CSCc2cc3cc(c2)CSC[C@@H](C(N)=O)NC(=O)[C@@H]2CCCN2C(=O)[C@H](C(C)C)NC(=O)[C@H](Cc2c[nH]c4ccccc24)NC(=O)CNC(=O)[C@H](CC(=O)O)NC(=O)[C@H](C(C)C)NC(=O)[C@H](Cc2c[nH]c4ccccc24)NC(=O)[C@H](Cc2ccc(cc2)OC3)NC(=O)[C@H](CCC(=O)O)NC(=O)[C@H]([C@@H](C)O)NC1=O` [I-108] (Ac-CTEYWVDGWVPC-NH2; linker 1-4-12 via TBMB), for which the Ki at CAIX was less than 500 nM.

`CC(=O)N[C@H]1Cc2ccc(cc2)OCc2cc3cc(c2)CSC[C@H](NC(=O)[C@H](CCC(=O)O)NC(=O)[C@H]([C@@H](C)O)NC1=O)C(=O)N[C@@H](Cc1c[nH]c2ccccc12)C(=O)N[C@@H](C(C)C)C(=O)N[C@@H](CC(=O)O)C(=O)NCC(=O)N[C@@H](Cc1c[nH]c2ccccc12)C(=O)N[C@@H](C(C)C)C(=O)N1CCC[C@H]1C(=O)N[C@H](C(N)=O)Cc1ccc(cc1)OC3` [I-109] (Ac-YTECWVDGWVPY-NH2; linker 1-4-12 via TBMB): on CAIX (setting [1]), the Ki is 500 to 1000 nM.
